# What was measured:
# [1] = biological target: T1, HA-VP16-TraR fusion (TraR from Agrobacterium strain A348 fused to VP16 activation domain; pMON53030) (UniProt P06492+P33905); assay: Transient GUS reporter assay in transfected carrot protoplasts with VP16-TraR effector; assay type: cell-based, Agrobacterium tumefaciens; design: + inducer (average of the GUS activities) / + inducer (GUS activity, average) / GUS activity, average (with AHL or analog at the stated concentration) / GUS activity, average (+ inducer) / GUS activity, average: unit not given here; details: for GUS activity, average ('- inducer'): 1 µM of the AHL or analog; for GUS activity, average ('- inducer') / GUS activity, average (with AHL or analog at the stated concentration) / GUS activity, average (+ inducer) / GUS activity, average / fold +/-: reporter TraA8(4X)-GUS + 35S-VP16-TraR; for GUS activity, average (with AHL or analog at the stated concentration): 5 µM of the AHL or analog; for GUS activity, average: 25 µM of the AHL or analog; for + inducer (GUS activity, average): 12.5 µM C8-AHL; for + inducer (average of the GUS activities): 36 hrs
# T1 construct: PCR fragments containing open reading frames are cloned into an expression construct; expressed in transfected cells; host or cells: carrot protoplasts from cell suspension culture, transient transfection
# From the text: Carrot protoplasts were transfected with the TraA8 (4X)- GUS reporter construct with the 35S-VP16-TraR activator gene and tested for GUS induction by application of wild type AHL and the various AHL analogs described in Example 8. Table 8: Transient assays in carrot protoplasts of AHL analogs
# [2] = tested on: HA-VP16-EsaR fusion (pMON53005); assay: Transient GUS reporter assay in transfected carrot protoplasts with VP16-EsaR effector; assay type: cell-based, Erwinia sterwartii; details: 25 [i M] OOHL, 36 hrs
# Experimental: Plasmids for transfection were isolated and purified using Megaprep plasmid DNA isolation kit (Qiagen). Carrot protoplasts for transfections were prepared from carrot cell suspension culture and transfected with purified DNA as described (Ulmasov et al., Plant Cell 7:1611-1623, 1995). Briefly, 10 ì g of the reporter plasmid and 5 ìg of the effector plasmid were incubated with 10^6 protoplasts for five minutes at the room temperature in the presence of polyethylene glycol-calcium solution. After diluting approximately 10-fold with the culture medium, the protoplasts were incubated in the dark for 36 hours either in the presence or absence of the inducer 3-oxohexanoyl-homoserine lactone (OHHL, racemic mixture of the L- and D-isomers, purchased from Sigma Chemical Co., St Louis, MO). After incubation, protoplasts were collected by low-speed centrifugation, lysed and the level of GUS activity was measured using fluorometric GUS assay (Jefferson et al., EMBO J. 6:3901-3907, 1987).
# Ten µg of the reporter plasmid (pMON53031), and indicated amount of the 35S effector plasmid per reaction was used for transfection in triplicate.
# [3] = tested on: VP16-TraR fusion (pMON53077); assay: GUS activity in transgenic Arabidopsis plants carrying GUS reporter and 35S-VP16-TraR activator genes; assay type: in vivo, Agrobacterium tumefaciens; details: detached caulline leaves, 24 hours in MS medium with 100 µM HSL
# Experimental: Transgenic Arabidopsis plants containing TraA8(3X)-GUS reporter and 35S-VP16-TraR activator genes (pMON53077) were analyzed for induction of GUS activity. […] GUS assays were conducted as described by Jefferson et al. (supra).
# In addition, detached leaves incubated for 24 hours in MS medium with or without 100 µM HSL were visualized for induction of GUS activity after staining.
# [4] = tested on: TraR (expressed from GAL1 galactose inducible promoter, pGAL415TraR); assay: β-galactosidase reporter assay (chemiluminescent) in yeast expressing TraR; assay type: cell-based, Agrobacterium tumefaciens; details: 50µM C8-HSL, 5 hrs of growth on galactose; strain YPH499, cl.5 and 6; minimal promoter with 3 copies of TraA8 element
# [5] = tested on: TraM; details: 12.5 µM C8-AHL; reporter TraA8(3X), cl.4 (60 µg) + TraM
# From the text: Plasmids for transfection were isolated and purified using Megaprep plasmid DNA isolation kit (Qiagen).
# [6] = ratio of GUS activity at 12.5 µM to that at 5 µM
# [7] = ratio of GUS activity at 75 µM to that at 25 µM
# [8] = ratio of GUS activity at […] to that at 1 µM
compound,measurement,setting,value
"CCCCCC(=O)C(C)C(=O)N[C@@H](CCO)C(=O)O (stereo partly drawn) [compound 7, N-(α-Methyl-b-ketooctanoyl)-(S)-homoserine]","GUS activity, average ('- inducer')",[1],180.2
same,"GUS activity, average (with AHL or analog at the stated concentration)",[1],1071.5
same,"GUS activity, average (+ inducer)",[1]; 12.5 µM of the AHL or analog,2746.0
same,"GUS activity, average",[1],2486.3
same,"GUS activity, average (+ inducer)",[1]; 75 µM of the AHL or analog,3209.7
same,fold +/-,[1]; [6],2.6 fold
same,fold +/-,[1]; [7],1.3 fold
same,fold +/-,[1]; [8],1.8 fold
"CCCCCC(=O)C(C)(C)C(=O)N[C@@H](CCO)C(=O)O [compound 16, N-(α,α-Dimethyl-b-ketooctanoyl)-(S)-homoserine]","GUS activity, average ('- inducer')",[1],111.8
same,"GUS activity, average (with AHL or analog at the stated concentration)",[1],229.7
same,"GUS activity, average (+ inducer)",[1]; 12.5 µM of the AHL or analog,509.8
same,"GUS activity, average",[1],1426.6
same,"GUS activity, average (+ inducer)",[1]; 75 µM of the AHL or analog,4719.8
same,fold +/-,[1]; [6],2.2 fold
same,fold +/-,[1]; [7],3.3 fold
same,fold +/-,[1]; [8],2.8 fold
3-oxooctanoyl-L-homoserine lactone [C8-HSL],"GUS activity, average ('- inducer')",[1],1263.2
same,"GUS activity, average (with AHL or analog at the stated concentration)",[1],3018.7
same,"+ inducer (GUS activity, average)","[1]; reporter Tra box(3X), cl.5, second transfection",1576.2
same,"+ inducer (GUS activity, average)","[1]; reporter TraA1 (3X), cl.35, second transfection",1560.4
same,"+ inducer (GUS activity, average)","[1]; reporter TraA2(3X), cl.43, second transfection",2057.1
same,"+ inducer (GUS activity, average)","[1]; reporter TraA3(3X), cl.4, second transfection",100.1
same,"+ inducer (GUS activity, average)","[1]; reporter TraA4(3X), cl.23, second transfection",109.6
same,"+ inducer (GUS activity, average)","[1]; reporter TraA5(3X), cl.2, second transfection",82.3
same,"+ inducer (GUS activity, average)","[1]; reporter TraA6(3X), cl.21, second transfection",3.2
same,"+ inducer (GUS activity, average)","[1]; reporter TraA7(3X), cl.15, second transfection",236.8
same,"+ inducer (GUS activity, average)","[1]; reporter TraA8(3X), cl.4 (25µg) + TraR + CAT",762.2
same,"+ inducer (GUS activity, average)","[1]; reporter TraA8(3X), cl.4 (25µg) + TraR + TraM co-transfected",11.8
same,"+ inducer (GUS activity, average)","[1]; reporter TraA8(3X), cl.4 (25µg) + TraR + TraS co-transfected",248.3
same,"+ inducer (GUS activity, average)","[1]; reporter TraA8(3X), cl.4 (60 µg), effector printed as TraR",1665.3
same,"+ inducer (GUS activity, average)","[1]; reporter TraA8(3X), cl.4, second transfection",1759.1
same,"+ inducer (GUS activity, average)","[1]; reporter TraA8(4X), cl. 16 + HA-VP16-TraR",1015.3
same,"+ inducer (GUS activity, average)","[1]; reporter TraA10(3X), cl.17, second transfection",641.1
same,"+ inducer (GUS activity, average)","[1]; reporter TraA-1(3X), cl.14, second transfection",26.7
same,"+ inducer (GUS activity, average)","[1]; reporter tra box (6X), cl.7, first transfection",987.4
same,"+ inducer (GUS activity, average)","[1]; reporter traA1(3X), cl.35, first transfection",1941.5
same,"+ inducer (GUS activity, average)","[1]; reporter traA2(3X), cl.43, first transfection",2281.6
same,"+ inducer (GUS activity, average)","[1]; reporter traA3(3X), cl.4, first transfection",116.5
same,"+ inducer (GUS activity, average)","[1]; reporter traA4(3X), cl.23, first transfection",122.8
same,"+ inducer (GUS activity, average)","[1]; reporter traA5(3X), cl.2, first transfection",20.5
same,"+ inducer (GUS activity, average)","[1]; reporter traA6(3X), cl.21, first transfection",64.6
same,"+ inducer (GUS activity, average)","[1]; reporter traA7(3X), cl.15, first transfection",234.8
same,"+ inducer (GUS activity, average)","[1]; reporter traA8(3X), cl.4, first transfection",888.0
same,"+ inducer (GUS activity, average)","[1]; reporter traA9(3X), cl.8, first transfection",63.7
same,"GUS activity, average (+ inducer)",[1]; 12.5 µM of the AHL or analog,4142.8
same,"GUS activity, average",[1],7642.9
same,"GUS activity, average",[1]; listed as CB-HSL,7523.9
same,"GUS activity, average (+ inducer)",[1]; 75 µM of the AHL or analog,7975.7
same,+ inducer (average of the GUS activities),"[1]; 0.1 [i M] OOHL, reporter pMON53031, pMON53030 60 µg",355.9
same,+ inducer (average of the GUS activities),"[1]; 0.5 [i M] OOHL, reporter pMON53031, pMON53030 60 µg",698
same,+ inducer (average of the GUS activities),"[1]; 1 [i M] OOHL, reporter pMON53031, pMON53030 60 µg",458.2
same,+ inducer (average of the GUS activities),"[1]; 2.5 [i M] OOHL, reporter pMON53031, pMON53030 60 µg",1487.8
same,+ inducer (average of the GUS activities),"[1]; 5 [i M] OOHL, reporter pMON53031, pMON53030 60 µg",1474.2
same,+ inducer (average of the GUS activities),"[1]; 12.5 [i M] OOHL, reporter pMON53031, pMON53030 60 µg",1526.2
same,+ inducer (average of the GUS activities),"[1]; 25 [i M] OOHL, reporter pMON53031, pMON53030 30 µg + CAT",215.7
same,+ inducer (average of the GUS activities),"[1]; 25 [i M] inducer (OOHL, or C6), reporter pMON53031, pMON53030 60 µg",1393.2
same,+ inducer (average of the GUS activities),"[1]; 50 [i M] OOHL, reporter pMON53031, pMON53030 60 µg",1595.5
same,+ inducer (average of the GUS activities),"[1]; 100 [i M] OOHL, reporter pMON53031 (traII box 3X-GUS) 10 µg, pMON53030 60 µg",1446.4
same,+ inducer (average of the GUS activities),[2]; pMON53035 (lasB box 3X-GUS) + pMON53005 60 µg,4.9
same,+ inducer (average of the GUS activities),"[2]; reporter pMON53031, pMON53005 60 µg",764.1
same,induction of GUS activity by histochemical GUS staining,[3],uniform induced activity
same,induction of β-gal activity in cell extracts,[4],strong induction
same,"+ inducer (GUS activity, average)",[5],98.0

# From patent EP1507010B1, “Control of the gene expression in eukaryotic cells” (priority 1999, dated 2001)
